The text below walks through data of US9359616B2, “Ribosomal polynucleotides and related expression systems” (The Scripps Research Institute, priority 2012, dated 2016).

The test system of assay [1] is mutated subunits (G693A 18S rRNA). Description: 35S-Met/Cys pulse labeling of transfected N2a cells cultured with increasing concentrations of pactamycin (G693A mutated ribosomes). Format: cell-based, mouse. Conditions: even at the highest concentration tested of 6,400 ng/ml pactamycin; N2a cells (FIG. 4d).
The test system of assay [2] is wild type 40S subunits. Description: 35S-Met/Cys pulse labeling of transfected N2a cells cultured with increasing concentrations of pactamycin (wild type ribosomes). Format: cell-based, mouse. Conditions: 100 ng/ml pactamycin, could be further blocked at higher concentrations, SDS-PAGE of 35S-labeled lysates (FIG. 4d). The text has this:
There were no reports of functionally tested examples of nucleotide changes conferring antibiotic resistance in higher eukaryotes. Pactamycin affects translation by binding to rRNA in the E-site of the small subunit and disrupting the positioning of mRNA at this site. The result of pactamycin-binding is a block in […] and the accumulation of di-peptides resulting from aborted initiation events. Analyzed were the effects of mutations in mouse 18S rRNA at four residues, G963, A964, C1065 and C1066 in SEQ ID NO:23. These residues correspond, respectively, to positions 693, 694, 795 and 796 at the E-site of E. coli 16S rRNA which were identified from crystal structures. Unless otherwise noted, the numbering of these sites in mammalian 18S rRNA sequences is based on that in E. coli 16S rRNA. […] Pactamycin resistance was assessed by 35S-Met/Cys pulse labeling of transfected cells in the presence of 100 ng/ml antibiotic. […] Mutated ribosomes were also analyzed for their ability to translate a luciferase mRNA in cells transfected with a luciferase reporter plasmid (pGL4.13), and cultured in the presence of 100 ng/ml pactamycin (FIG. 4b).
The levels of synthetic 18S rRNA for constructs with each mutation were monitored using the hybridization tag and found no substantial differences that could account for the difference in translation between G693A and the other mutations (FIG. 4c). […]

For the compound `CC(=O)c1cccc(N[C@H]2[C@H](N)[C@@](NC(=O)N(C)C)([C@H](C)O)[C@@](C)(O)[C@@]2(O)COC(=O)c2c(C)cccc2O)c1` [pactamycin], in assay [1], the “translation from the mutated subunits” value is “unaffected”. The “translation from wild type 40S subunits” value in assay [2] was “substantially blocked”.
